{"source": "paper PMC7238241", "about": "“Lack of Correlation between In Vitro and In Vivo Studies on the Inhibitory Effects of (‒)-Sophoranone on CYP2C9 Is Attributable to Low Oral Absorption and Extensive Plasma Protein Binding of (‒)-Sophoranone” (Pharmaceutics, 2020)", "key": {"[1]": {"tested_on": "CYP1A2, CYP2A6, CYP2B6, CYP2C8, CYP2C9, CYP2C19, CYP2D6, CYP2E1, and CYP3A4", "assay": "Time-dependent inactivation (IC50 shift) of the nine CYP isoforms in human liver microsomes", "type": "biochemical", "settings": "30 min pre-incubation with human liver microsomes in the presence of NADPH", "procedure": "Pooled human liver microsomes (1 mg/mL) were incubated with SPN (0−50 µM) for 30 min at 37 °C in the absence or presence of an NADPH-generating system (i.e., the “inactivation incubation”). After inactivation incubation, aliquots (10 μL) were transferred into fresh incubation tubes (final volume 100 μL) containing an NADPH-generating system and each P450-selective substrate cocktail set. The reaction mixtures were incubated for 15 min at 37 °C in a shaking water bath. After incubation, the reactions were stopped by adding 200 µL of ice-cold acetonitrile containing 2 µM chlorpropamide, as an internal standard. The incubation mixtures were centrifuged (16,000× g, 15 min) and 5 μL of the supernatant was injected into the LC-MS/MS system. All incubations were performed in triplicate, and the data are shown as the mean ± standard deviation."}, "[2]": {"assay": "Unbound fraction in human liver microsomes (rapid equilibrium dialysis)", "type": "in vitro ADME", "settings": "microsomal protein 0.1 mg/mL, n = 3", "procedure": "The human liver microsomal incubation mixtures (final concentration 0.1 mg/mL) without NADPH generating system were used to determine the unbound fraction of SPN. Other procedures were similar to those of plasma protein binding assay."}, "Caco-2 cells": {"tested_on": "Caco-2 cells", "assay": "Bi-directional Caco-2 cell permeability", "type": "in vitro ADME", "procedure": "(§1) Caco-2 cell permeability was assessed to predict the oral absorption of SPN. Cell culture and transport studies were performed as previously described. Briefly, for the bi-directional transport studies, the cells were seeded at a density of 1 × 10^5 cells/well, and the cell medium was replaced until they formed confluent monolayers. On the 25th day, the cell monolayers were washed with pre-warmed HBSS buffer. […] Before the experiment, the integrity of the cell monolayers was evaluated by measuring the transepithelial electrical resistance using a Millicell ohmmeter. After 2 h incubation at 37 °C, samples were withdrawn from both sides, respectively. All samples were stored at −80 °C until LC-MS/MS analysis, and all experiments were performed in triplicate.\n(§2) The apparent permeability coefficient (Papp) was calculated using the following equation. Papp = (Vr/C0) × (1/A) × ([Drug]/t) where, Vr is the volume of medium in the receiver chamber, C0 is the donor compartment concentration at time zero, A is the area of the cell monolayer, t is the treatment time of the drug, and [Drug] is the drug concentration in the receiver chamber."}, "[3]": {"assay": "Bi-directional Caco-2 cell permeability", "type": "in vitro ADME", "settings": "human, Caco-2", "procedure": "as §1, §2"}, "CYP2C9": {"target": "T1, CYP2C9 (Homo sapiens, UniProt P11712)", "T1 construct": "tissue Corning Life Sciences; host or cells: pooled human liver microsomes, 150 donors", "T1 sequence (P11712 whole entry)": "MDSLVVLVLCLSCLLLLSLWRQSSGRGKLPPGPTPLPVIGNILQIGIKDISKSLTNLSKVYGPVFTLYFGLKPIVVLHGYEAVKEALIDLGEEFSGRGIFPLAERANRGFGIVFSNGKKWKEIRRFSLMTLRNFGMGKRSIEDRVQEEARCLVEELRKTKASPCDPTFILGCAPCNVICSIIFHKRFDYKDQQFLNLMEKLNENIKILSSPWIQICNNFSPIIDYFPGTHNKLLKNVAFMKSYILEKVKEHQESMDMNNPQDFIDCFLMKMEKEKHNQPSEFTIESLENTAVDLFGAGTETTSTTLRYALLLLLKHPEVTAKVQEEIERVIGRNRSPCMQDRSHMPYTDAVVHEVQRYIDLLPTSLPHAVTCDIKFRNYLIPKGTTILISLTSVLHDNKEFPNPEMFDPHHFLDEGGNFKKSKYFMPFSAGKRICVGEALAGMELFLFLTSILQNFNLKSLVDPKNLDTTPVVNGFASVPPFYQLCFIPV", "assay": "Inhibition of other CYP2C9-specific pathways (diclofenac 4′-hydroxylation, losartan oxidation) in human liver microsomes", "type": "biochemical", "procedure": "The auto-optimized mass transitions were m/z 312 > 231 and m/z 437 > 207.1 for quantification of 4′-hydroxydiclofenac and losartan carboxylic acid, respectively. HPLC conditions were the same as those in the cocktail assay.\n(§3) The IC50 values were calculated via nonlinear least-squares regression analysis from logarithmic plots of inhibitor concentration versus percentage of activity remaining after inhibition, using SigmaPlot (ver. 14.0; Systat Software Inc, Chicago, IL, USA). The Ki values were determined from the equations for a single substrate single inhibitor model and the software available in the SigmaPlot Enzyme Kinetics module. Competitive, non-competitive, uncompetitive, or mixed inhibition models were evaluated and ranked according to the best fit based on Akaike Information Criterion (AIC) values. For visual inspection, the data were presented as Dixon plots."}, "CYP2D6": {"target": "T2, CYP2D6 (Homo sapiens, UniProt P10635)", "T2 construct": "tissue Corning Life Sciences; host or cells: pooled human liver microsomes, 150 donors", "T2 sequence (P10635 whole entry)": "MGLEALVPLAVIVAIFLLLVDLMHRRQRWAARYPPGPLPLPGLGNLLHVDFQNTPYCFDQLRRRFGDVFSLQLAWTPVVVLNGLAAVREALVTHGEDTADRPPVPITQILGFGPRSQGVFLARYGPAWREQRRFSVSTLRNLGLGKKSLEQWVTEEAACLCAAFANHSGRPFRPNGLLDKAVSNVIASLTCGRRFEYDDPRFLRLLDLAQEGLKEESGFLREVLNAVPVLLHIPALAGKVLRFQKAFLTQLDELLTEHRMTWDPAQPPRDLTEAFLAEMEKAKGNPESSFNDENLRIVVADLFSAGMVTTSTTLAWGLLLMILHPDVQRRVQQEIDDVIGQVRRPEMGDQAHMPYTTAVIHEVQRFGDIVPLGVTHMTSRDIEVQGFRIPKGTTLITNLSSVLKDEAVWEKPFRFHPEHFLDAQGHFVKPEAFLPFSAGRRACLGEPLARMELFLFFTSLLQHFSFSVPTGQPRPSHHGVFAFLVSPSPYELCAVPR", "assay": "Reversible CYP2D6 inhibition, cocktail assay (dextromethorphan O-demethylase) in human liver microsomes", "type": "biochemical", "procedure": "(§4) The inhibitory effects of SPN on CYP1A2, CYP2A6, CYP2B6, CYP2C8, CYP2C9, CYP2C19, CYP2D6, CYP2E1, and CYP3A4 were evaluated in pooled human liver microsomes through the use of specific CYP probe substrates (cocktail assay), as previously described with a slight modification. Concentrations of each CYP probe in Table 1 were used close to their reported Km values.\n(§5) Briefly, a 90-µL incubation mixture, including pooled human liver microsomes (final concentration 0.1 mg/mL), 50 mM phosphate buffer (pH 7.4), each CYP-probe substrate cocktail set, and SPN (0–50 μM), was pre-incubated for 5 min at 37 °C. SPN was dissolved in methanol and spiked into the incubation mixture to a final concentration of 0.5% methanol. […]\nas §3, with “For visual inspection, the data were presented as Dixon plots.” left out"}, "[4]": {"set-up": "method as in PMID 26068519", "settings": "rats, oral 12.9 mg/kg SPN; cited from earlier work"}, "CYP1A2": {"target": "T3, CYP1A2 (Homo sapiens, UniProt P05177)", "T3 construct": "tissue Corning Life Sciences; host or cells: pooled human liver microsomes, 150 donors", "T3 sequence (P05177 1-516)": "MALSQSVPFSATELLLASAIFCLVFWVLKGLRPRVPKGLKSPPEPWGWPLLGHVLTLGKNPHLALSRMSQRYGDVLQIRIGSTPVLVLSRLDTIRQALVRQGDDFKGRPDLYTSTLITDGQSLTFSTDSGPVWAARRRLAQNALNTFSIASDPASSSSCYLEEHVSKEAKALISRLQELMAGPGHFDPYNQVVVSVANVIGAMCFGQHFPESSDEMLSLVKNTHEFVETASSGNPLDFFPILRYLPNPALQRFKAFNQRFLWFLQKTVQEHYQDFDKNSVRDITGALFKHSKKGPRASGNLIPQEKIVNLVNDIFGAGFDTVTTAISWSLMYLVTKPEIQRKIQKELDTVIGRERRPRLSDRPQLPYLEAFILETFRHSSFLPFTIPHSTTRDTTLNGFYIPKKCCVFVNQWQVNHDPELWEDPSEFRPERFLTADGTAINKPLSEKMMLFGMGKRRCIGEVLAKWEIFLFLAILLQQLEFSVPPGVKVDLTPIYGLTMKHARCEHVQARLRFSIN", "assay": "Reversible CYP1A2 inhibition, cocktail assay (phenacetin O-deethylase) in human liver microsomes", "type": "biochemical", "procedure": "as §4, §5\nas §3, with “For visual inspection, the data were presented as Dixon plots.” left out"}, "[5]": {"settings": "at the highest tested concentration (50 μM)"}}, "note": "Like-named read-outs stand apart in the source and are kept apart here.", "data": [{"smiles": "CC(C)=CCc1cc([C@@H]2CC(=O)c3ccc(O)c(CC=C(C)C)c3O2)cc(CC=C(C)C)c1O", "note": "[SPN, (‒)-Sophoranone]", "values": [{"measurement": "shift in IC50 after pre-incubation (time-dependent inactivation of the nine CYPs)", "setting": "[1]", "result": "no obvious shift in IC50"}, {"measurement": "fraction unbound at 4 h, 10 µM", "setting": "[2]; 10 μM", "result": "0.00621 ± 0.000405"}, {"measurement": "fraction unbound at 4 h, 50 µM", "setting": "[2]; 50 μM", "result": "0.00724 ± 0.0017"}, {"measurement": "Papp A-to-B as % of propranolol Papp", "setting": "Caco-2 cells; 10 μM", "result": 0.429, "unit": "%"}, {"measurement": "Papp A-to-B as % of propranolol Papp", "setting": "Caco-2 cells; 50 μM", "result": 0.642, "unit": "%"}, {"measurement": "Papp A→B at 2 h, 10 µM", "setting": "[3]; 10 μM, 2 h, n = 3", "result": "0.115 ± 0.0369", "unit": "×10⁻⁶ cm/s"}, {"measurement": "Papp B→A at 2 h, 10 µM", "setting": "[3]; 10 μM, 2 h, n = 3", "result": "0.101 ± 0.00444", "unit": "×10⁻⁶ cm/s"}, {"measurement": "Papp A→B at 2 h, 50 µM", "setting": "[3]; 50 μM, 2 h, n = 3", "result": "0.172 ± 0.0488", "unit": "×10⁻⁶ cm/s"}, {"measurement": "Papp B→A at 2 h, 50 µM", "setting": "[3]; 50 μM, 2 h, n = 3", "result": "0.152 ± 0.0353", "unit": "×10⁻⁶ cm/s"}, {"measurement": "efflux ratio at 2 h", "setting": "[3]; not a substrate for P-gp and BCRP, read-out: efflux ratio (B-to-A/A-to-B)", "result": "< 2"}, {"measurement": "IC50", "setting": "CYP2C9; IC50, CYP2C9-catalyzed diclofenac 4′-hydroxylation, diclofenac 5 μM", "result": "879 ± 88.8", "unit": "nM"}, {"measurement": "IC50", "setting": "CYP2C9; losartan 5 μM, read-out: IC50, CYP2C9-catalyzed losartan oxidation", "result": "455 ± 48.6", "unit": "nM"}, {"measurement": "residual enzyme activity, CYP2D6", "setting": "CYP2D6; [5]", "result": "53.9 ± 3.53", "unit": "%"}, {"measurement": "IC50", "setting": "CYP2D6; human liver microsomes 0.1 mg/mL, cocktail assay, dextromethorphan probe, n = 3", "result": "> 50000", "unit": "nM"}, {"measurement": "maximum plasma concentration (Cmax)", "setting": "[4]", "result": "approximately 13.1 ng/mL"}, {"measurement": "residual enzyme activity, CYP1A2", "setting": "CYP1A2; [5]", "result": "greater than 80%"}, {"measurement": "IC50", "setting": "CYP1A2; human liver microsomes 0.1 mg/mL, cocktail assay, phenacetin probe, n = 3", "result": "> 50000", "unit": "nM"}]}]}
